Measurements reported in PMC6802730, “In Vitro Performance of Published Glypican 3-Targeting Peptides TJ12P1 and L5 Indicates Lack of Specificity and Potency” (Cancer Biotherapy & Radiopharmaceuticals, 2019).
Entries after “also recorded” stand apart in the source; their conditions may differ. Where two headings read alike, the source gives them in different places. Blank lines part the entries; values can stand above or below the substance they belong to.

How the values were obtained:
Solubility assays = format: physicochemical
Experimental: (§1) Solubility assays were performed to determine the most compatible solvent for both peptides before in vitro evaluation of GPC3 binding, favoring aqueous solvents over cytotoxic organic solvents such as dimethylformamide (DMF) and dimethyl sulfoxide (DMSO).
FIG. 1. Cy5.5-conjugated TJ12P1 is peptide insoluble in aqueous buffer. Bright field images of Cy5.5-TJ12P1 peptides in solution. In (A, B), peptide Cy5.5-TJ12P1 is undissolved in 20% DMSO/80% ddH2O and 100% ddH2O at 0.3 mg/mL, respectively. DMSO, dimethyl sulfoxide.

human GPC3 = target: T1, human GPC3 (Homo sapiens, UniProt P51654); experiment: Biolayer interferometry to immobilized recombinant biotinylated GPC3; format: binding; conditions: unlabeled peptide, 1 × PBS with 0.02% Tween-20
T1 construct: biotin (biotinylated); purchased Acro Biosystems
Experimental: (§2) Biotinylated human GPC3 protein (Acro Biosystems, Newark, DE) was diluted to 5 μg/mL in assay buffer (1 × PBS with 0.02% Tween-20) in a 96-well plate and loaded onto streptavidin biosensors (FortéBio, Menlo Park, CA). Each unconjugated peptide was diluted in assay buffer at four concentrations (1000, 500, 250, and 125 nM for TJ12P1; and 500, 250, 125, and 62.5 nM for KKK-L5) and loaded into the 96-well plate in a final volume of 200 μL. Specific and nonspecific binding wells were made for each concentration. The plate was run on an Octet Red96 system (FortéBio) and analyzed with FortéBio Octet Data Analysis software (v.11).

GPC3 [1] = experiment: Cell-based and cell-free GPC3 binding assays, overall result; design: species or system human; conditions: for specific binding (overall): concentrations in the range of their reported KD; for selectivity for GPC3 (overall): concentrations near the reported KD; for binding to GPC3 (overall): fluorescently labeled and unlabeled versions, concentrations in the range of their published KD (0.3–1 μM)
Experimental: (§3) Approximately 1 × 10^6 cells per sample tube were harvested, washed once with ice-cold staining buffer (1% bovine serum albumin in 1 × phosphate buffered saline [PBS]), and resuspended in 60 μL staining buffer. Cells were then distributed into control and experimental vials. Unstained and single-color control samples were made. Experimental samples were stained with PE-conjugated anti-GPC3 antibody (R&D Systems, Minneapolis, MN), PE-conjugated IgG2 isotype control (Biolegend, San Diego, CA), conjugated specific or nonspecific peptide and incubated for 1–2 h on ice in the dark. Data were collected using a BD FACSCalibur cytometer running BD CellQuest Pro software (v6.0), and results were analyzed with FlowJo (v10.4.2). All experiments represent biological replicates (n = 3).
as §2

[2] = cited from earlier work
Experimental: as §1, with “(DMSO). […] Sonication and vortexin ... || This study has a few limitations.” for “(DMSO).”

GPC3 [3] = conditions: cited from earlier work
Excerpt: Table 1. […] Several full-length antibodies, antibody fragments, and peptides for imaging and/or therapeutic use have been developed for GPC3 with varying degrees of success (Table 1).[8–17] […] To rule out the possibility that fluorophore modification of TJ12P1 interfered with its abil ... || (+ 2 further places)

[4] = test system: G1, HepG2, and A431 cells; experiment: Flow cytometry, binding compared across A431, G1 and HepG2 cells; format: cell-based, human; conditions: 1 h, n = 3
Experimental: (§4) A431, a human epidermoid carcinoma GPC3^− cell line, and A431-GPC3^+ (G1), a transfected A431 cell line engineered to stably express human GPC3, were both obtained from Dr. M.H. (National Cancer Institute, Bethesda, MD).[12] HepG2 (GPC3^+ liver cancer cell line) was obtained from ATCC (Manassas, VA). All cell lines were cultured in DMEM (Life Technologies, Carlsbad, CA) supplemented with 10% FetaPlex (Gemini Bio-Products, West Sacramento, CA) according to supplier's protocols. All cell lines tested negative for mycoplasma in monthly tests and were used for experiments within 10 passages (HepG2) or 15 passages (A431 and G1).
as §3

[5] = target: Glypican 3 (Homo sapiens) (UniProt P51654); experiment: surface plasmon resonance; conditions: cited from earlier work
[6] = target: Glypican 3 (Homo sapiens) (UniProt P51654); conditions: cited from earlier work
HepG2 cells = experiment: Flow cytometry, HepG2 (GPC3-positive) cells; format: cell-based; conditions: 300 nM, 1 h, n = 3
Experimental: as §4
as §3, with “All experiments represent biological replicates (n = 3).” left out

[7] = Hydrophobic residue content

T1 sequence (P51654 25-580): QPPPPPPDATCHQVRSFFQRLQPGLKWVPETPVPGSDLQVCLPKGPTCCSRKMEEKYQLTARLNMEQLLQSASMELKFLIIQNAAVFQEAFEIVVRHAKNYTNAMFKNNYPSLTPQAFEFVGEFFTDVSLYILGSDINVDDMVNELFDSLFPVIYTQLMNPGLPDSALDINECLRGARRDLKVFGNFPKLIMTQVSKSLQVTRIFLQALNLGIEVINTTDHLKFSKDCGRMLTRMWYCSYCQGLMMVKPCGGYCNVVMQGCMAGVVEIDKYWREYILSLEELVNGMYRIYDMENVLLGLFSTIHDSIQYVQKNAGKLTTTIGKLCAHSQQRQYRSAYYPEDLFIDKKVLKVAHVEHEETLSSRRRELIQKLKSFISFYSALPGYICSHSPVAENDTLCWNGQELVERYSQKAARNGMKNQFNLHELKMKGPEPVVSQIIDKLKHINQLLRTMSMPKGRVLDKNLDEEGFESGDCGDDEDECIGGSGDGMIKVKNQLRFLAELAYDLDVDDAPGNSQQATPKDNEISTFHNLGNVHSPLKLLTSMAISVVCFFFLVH
Glypican 3 (Homo sapiens), sequence (P51654 359-554): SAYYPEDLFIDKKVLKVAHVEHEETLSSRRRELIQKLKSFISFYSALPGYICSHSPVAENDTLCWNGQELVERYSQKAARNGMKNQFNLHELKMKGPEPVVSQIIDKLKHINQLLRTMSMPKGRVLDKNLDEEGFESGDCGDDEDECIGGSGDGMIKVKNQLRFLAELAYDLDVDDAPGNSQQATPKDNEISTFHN

solubility (Solubility assays; ddH2O, 0.5 mg/mL): soluble in ddH2O | KD by BLI (human GPC3; 62.5–500 nM): no KD could be calculated
Substance: KKK-RLNVGGTYFLTTRQ [KKK-L5, variant of the L5 peptide with three lysine residues]
BLI binding to GPC3 (human GPC3; 62.5–500 nM, recombinant biotinylated human GPC3 on streptavidin biosensors): absence of specific binding to GPC3; also recorded: failed to demonstrate concentration-dependent binding behavior | specific binding (overall) (GPC3 [1]): do not bind specifically | selectivity for GPC3 (overall) (GPC3 [1]): neither TJ12P1 nor L5 variant demonstrates selectivity for GPC3 | solubility ([2]; aqueous solution, compared to the original L5 peptide, ref [23] (Han et al.)): higher solubility in aqueous solution

solubility (Solubility assays; aqueous solution, record 2): poor solubility in aqueous solutions | KD by BLI (human GPC3; 125–1000 nM): no KD could be calculated
Substance: DHLASLWWGTEL [TJ12P1]
solubility (Solubility assays; aqueous solution): poor solubility in aqueous solution | BLI concentration-dependent binding to GPC3 (human GPC3; 125–1000 nM, recombinant biotinylated human GPC3 on streptavidin biosensors): failed to demonstrate concentration-dependent binding behavior | specific binding (overall) (GPC3 [1]): do not bind specifically | selectivity for GPC3 (overall) (GPC3 [1]): neither TJ12P1 nor L5 variant demonstrates selectivity for GPC3 | binding to GPC3 (overall) (GPC3 [1]): neither fluorescently labeled nor unlabeled versions tested can bind to GPC3 | Kd (GPC3 [3]; with Cy5.5, ref [9] (Zhu et al.)): 390 nM

Substance: hGC33: published anti-GPC3 targeting moiety, humanized
Kd (GPC3 [3]; humanized: Yes, ref [16]): 0.67 nM

Substance: Sulfo-Cy5-WLSHLGDLTWEA [sulfo-Cy5-TJ12P1 scrambled peptide, sulfo-Cy5-labeled scrambled variant of TJ12P1]
binding compared to sulfo-Cy5-TJ12P1 ([4]; 325 nM, all GPC3+ cell lines (G1, HepG2), flow cytometry, p = 0.02): significantly increased binding in all GPC3^+ cell lines

Substance: L5
Kd [5]: 44.7 nM

Substance: TJ12P1
Kd [6]: 390 nM

Substance: Sulfo-Cy5-KKKYTRFLGTVGNRLTQ [sulfo-Cy5-KKK-L5 scramble, sulfo-Cy5-labeled scrambled variant of KKK-L5]
binding (MFI) compared to specific peptide (sulfo-Cy5-KKK-L5) ([4]; 300 nM, all three cell lines, p < 0.05): more binding; also recorded: binds better to all cell lines than the specific peptide | difference in staining compared to sulfo-Cy5-KKK-L5 (HepG2 cells; high-staining HepG2 population (Hi), p < 0.001): statistically significant | difference in staining compared to sulfo-Cy5-KKK-L5 (HepG2 cells; low-staining HepG2 population (Lo), p < 0.005): statistically significant

Substance: Sulfo-Cy5-DHLASLWWGTEL [sulfo-Cy5-TJ12P1, sulfo-Cy5-labeled variant of TJ12P1]
solubility (Solubility assays; 0.15 M NH4OAc): appeared to be soluble | binding, G1 vs HepG2 vs A431 ([4]; 325 nM, flow cytometry): no significant difference in binding between G1, HepG2, and A431 cells; also recorded: nonspecific association of TJ12P1 to all cell lines

solubility (Solubility assays; aqueous solution): poor solubility in aqueous solutions | hydrophobic residues, share of sequence ([7]; four out of the 14 residues): 28.5% | hydrophobic residues, number ([7]; out of the 14 residues): Four
Substance: RLNVGGTYFLTTRQ [L5, previously published GPC3-targeting peptide; original L5 not evaluated in this study, reference compound]
binding to GPC3 (overall) (GPC3 [1]): neither fluorescently labeled nor unlabeled versions tested can bind to GPC3 | solubility ([2]; original L5 peptide, as reported in literature): poor solubility

Substance: Sulfo-Cy5-KKKRLNVGGTYFLTTRQ [sulfo-Cy5-KKK-L5, sulfo-Cy5-conjugated KKK-L5]
solubility (Solubility assays; ddH2O, 0.5 mg/mL): soluble in ddH2O | binding, A431 vs HepG2 and G1 (histogram shift) ([4]; 300 nM, flow cytometry): bound nonspecifically to GPC3, as the observed histogram shift is identical in the A431 (GPC3^−) and the HepG2 and G1 (GPC3^+) cells

Substance: WLSHLGDLTWEA [TJ12P1 scramble, scrambled variant of TJ12P1, nonspecific control]
binding (MFI) compared to specific peptide (sulfo-Cy5-TJ12P1) ([4]; 325 nM, all cell lines tested, p < 0.05): more binding to all cell lines tested
